Values of other authors as cited in patent publication US20220401366A1, “LONG ACTING NMDA ANTAGONISTS” (Consegna Pharma, Inc., priority 2019, published 2022).

Conditions: S-ketamine versus R-ketamine

## CN[C@]1(c2ccccc2Cl)CCCCC1=O [S-ketamine]
  potency relative to R-ketamine: twice as potent as R-ketamine
